Source: paper PMC3966878, “Crystal Structure of ORF210 from E. coli O157:H1 Phage CBA120 (TSP1), a Putative Tailspike Protein” (PLoS ONE, 2014)

Tests used:
[1] = target: T1, TSP1 (ORF210) from CBA120 phage (Escherichia phage Cba120, UniProt G3M189); test: X-ray crystal structure (soak), […] Å; type: binding; details: crystal soak in mother liquor with 37% saturated sugar, Tris-HCl pH 7.0-7.6
T1 construct: full length, 770 residues plus C-terminal 6xHis tag; codon-optimized gene expressed in E. coli BL21; homotrimer, 82 kDa monomer; one Zn2+ per trimer
T1 sequence (G3M189 1-770): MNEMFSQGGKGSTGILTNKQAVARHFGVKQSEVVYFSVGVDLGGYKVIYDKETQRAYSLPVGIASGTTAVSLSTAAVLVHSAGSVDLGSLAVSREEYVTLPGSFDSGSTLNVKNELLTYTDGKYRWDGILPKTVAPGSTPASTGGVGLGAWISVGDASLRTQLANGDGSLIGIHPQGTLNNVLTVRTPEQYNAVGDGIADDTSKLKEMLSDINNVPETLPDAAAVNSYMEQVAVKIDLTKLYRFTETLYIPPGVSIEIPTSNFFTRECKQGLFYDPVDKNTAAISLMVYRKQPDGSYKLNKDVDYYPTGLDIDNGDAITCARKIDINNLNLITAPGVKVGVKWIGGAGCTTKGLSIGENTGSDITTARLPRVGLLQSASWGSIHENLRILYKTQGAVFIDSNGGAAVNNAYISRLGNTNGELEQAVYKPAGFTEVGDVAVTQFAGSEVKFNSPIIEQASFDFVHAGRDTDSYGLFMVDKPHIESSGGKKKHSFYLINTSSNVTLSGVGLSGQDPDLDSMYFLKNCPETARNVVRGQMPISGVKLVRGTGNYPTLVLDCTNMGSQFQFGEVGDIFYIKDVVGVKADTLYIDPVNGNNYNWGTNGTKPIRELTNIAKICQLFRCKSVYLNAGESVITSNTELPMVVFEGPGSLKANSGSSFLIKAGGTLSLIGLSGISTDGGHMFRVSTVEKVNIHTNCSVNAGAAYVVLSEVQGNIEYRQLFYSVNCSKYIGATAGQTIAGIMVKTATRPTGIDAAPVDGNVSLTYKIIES

[2] = target: T1, TSP1 (ORF210) from CBA120 phage; test: X-ray crystal structure (soak), […] Å; type: binding; details: crystal soak in mother liquor with 37% saturated sugar, Tris-HCl pH 7.0-7.6; site on the surface of D3, single subunit (Tyr306, Tyr427, Phe443, Ala430)
[3] = target: the molecule itself; test: SEC; analytical gel filtration, Superose 6, 100 ug TSP1, isocratic in PBS; mass from a standard curve of gel filtration standards
[4] = target: the molecule itself; test: crystal structure; hanging drop, 0.1 M Tris-HCl pH 7.0-7.6, 16% PEG 1000, room temperature; space group P212121; MAD phasing on Se-Met crystal; 1.8 A

OC[C@H]1O[C@@H](O)[C@H](O)[C@@H](O)[C@@H]1O [glucose]
X-ray crystal structure (soak), 2.0 Å ([1]; site in D3-D4 hole next to D4, single subunit (Glu639, Lys662, Lys615)): 4OJL for TSP1/glucose complex

OC[C@H]1O[C@@H](O[C@H]2[C@H](O)[C@@H](O)[C@@H](O)O[C@@H]2CO)[C@H](O)[C@@H](O)[C@H]1O [α-lactose]
X-ray crystal structure (soak), 2.0 Å ([1]; site deep in D3-D4 hole between two subunits (Val579, Lys577, Asp585)): 4OJO for TSP1/lactose complex

OC[C@H]1O[C@H](O[C@H]2[C@H](O)[C@@H](O)[C@@H](O)O[C@@H]2CO)[C@H](O)[C@@H](O)[C@@H]1O [α-maltose]
X-ray crystal structure (soak), 1.95 Å [2]: 4OJP for TSP1/maltose complex

B1: TSP1 (tailspike protein 1, ORF210) from bacteriophage CBA120, wild-type, with C-terminal 6X-His tag (natural protein, bacteriophage CBA120 (vB_EcoM_CBA120), UniProt G3M189 1-770, looked up)
chain: MNEMFSQGGKGSTGILTNKQAVARHFGVKQSEVVYFSVGVDLGGYKVIYDKETQRAYSLPVGIASGTTAVSLSTAAVLVHSAGSVDLGSLAVSREEYVTLPGSFDSGSTLNVKNELLTYTDGKYRWDGILPKTVAPGSTPASTGGVGLGAWISVGDASLRTQLANGDGSLIGIHPQGTLNNVLTVRTPEQYNAVGDGIADDTSKLKEMLSDINNVPETLPDAAAVNSYMEQVAVKIDLTKLYRFTETLYIPPGVSIEIPTSNFFTRECKQGLFYDPVDKNTAAISLMVYRKQPDGSYKLNKDVDYYPTGLDIDNGDAITCARKIDINNLNLITAPGVKVGVKWIGGAGCTTKGLSIGENTGSDITTARLPRVGLLQSASWGSIHENLRILYKTQGAVFIDSNGGAAVNNAYISRLGNTNGELEQAVYKPAGFTEVGDVAVTQFAGSEVKFNSPIIEQASFDFVHAGRDTDSYGLFMVDKPHIESSGGKKKHSFYLINTSSNVTLSGVGLSGQDPDLDSMYFLKNCPETARNVVRGQMPISGVKLVRGTGNYPTLVLDCTNMGSQFQFGEVGDIFYIKDVVGVKADTLYIDPVNGNNYNWGTNGTKPIRELTNIAKICQLFRCKSVYLNAGESVITSNTELPMVVFEGPGSLKANSGSSFLIKAGGTLSLIGLSGISTDGGHMFRVSTVEKVNIHTNCSVNAGAAYVVLSEVQGNIEYRQLFYSVNCSKYIGATAGQTIAGIMVKTATRPTGIDAAPVDGNVSLTYKIIES
notes: Tailspike protein 1 (TSP1), open reading frame 210 (tsp1) of the phage CBA120 genome, codon-optimised synthetic gene; the encoded 770 amino acid residues followed by six histidines; A construct with an N-terminal 6X-His tag was dropped; the C-terminal tag construct was used for all experiments; also called CBA120 TSP1; wild-type TSP1; source: E. coli BL21 (pBAD24, arabinose induction), purified …
stoichiometry N [3]: 3

B2: Selenomethionine derivative of TSP1 (ORF210) from bacteriophage CBA120, with C-terminal 6X-His tag (natural protein, bacteriophage CBA120 (vB_EcoM_CBA120), UniProt G3M189 1-770, looked up)
chain: MNEMFSQGGKGSTGILTNKQAVARHFGVKQSEVVYFSVGVDLGGYKVIYDKETQRAYSLPVGIASGTTAVSLSTAAVLVHSAGSVDLGSLAVSREEYVTLPGSFDSGSTLNVKNELLTYTDGKYRWDGILPKTVAPGSTPASTGGVGLGAWISVGDASLRTQLANGDGSLIGIHPQGTLNNVLTVRTPEQYNAVGDGIADDTSKLKEMLSDINNVPETLPDAAAVNSYMEQVAVKIDLTKLYRFTETLYIPPGVSIEIPTSNFFTRECKQGLFYDPVDKNTAAISLMVYRKQPDGSYKLNKDVDYYPTGLDIDNGDAITCARKIDINNLNLITAPGVKVGVKWIGGAGCTTKGLSIGENTGSDITTARLPRVGLLQSASWGSIHENLRILYKTQGAVFIDSNGGAAVNNAYISRLGNTNGELEQAVYKPAGFTEVGDVAVTQFAGSEVKFNSPIIEQASFDFVHAGRDTDSYGLFMVDKPHIESSGGKKKHSFYLINTSSNVTLSGVGLSGQDPDLDSMYFLKNCPETARNVVRGQMPISGVKLVRGTGNYPTLVLDCTNMGSQFQFGEVGDIFYIKDVVGVKADTLYIDPVNGNNYNWGTNGTKPIRELTNIAKICQLFRCKSVYLNAGESVITSNTELPMVVFEGPGSLKANSGSSFLIKAGGTLSLIGLSGISTDGGHMFRVSTVEKVNIHTNCSVNAGAAYVVLSEVQGNIEYRQLFYSVNCSKYIGATAGQTIAGIMVKTATRPTGIDAAPVDGNVSLTYKIIES
modifications: selenomethionine in place of methionine
notes: Tailspike protein 1 (TSP1), open reading frame 210 (tsp1) of the phage CBA120 genome, same plasmid pBAD24::tsp1 as m1; the encoded 770 amino acid residues followed by six histidines; also called Se-Met TSP1; SeMet TSP1; source: E. coli B834 (methionine auxotroph, SelenoMet media with 40 mg/L selenomethionine), purified as the wild type; not shown: His6, C-terminal, kept
stoichiometry N [4]: 3
